Like-named read-outs stand apart in the source and are kept apart here.
How the values were obtained:
Type in all cases: cell-based
[1] = system: AZT- and NNI-resistant HIV-1 (strain: RTMDR-1); assay: Inhibition of RTMDR-1 (HIV-MDR) replication in PBMNC (RT activity)
Procedure: (§1) Cellular Assays of Anti-HIV Activity and Cytotoxicity. […] Percent viral inhibition was calculated by comparing the RT activity values from the test substance-treated infected cells with RT values from untreated infected cells (i.e., virus controls).

[2] = system: zidovudine-resistant primary clinical HIV-1 isolates; assay: p24 drug susceptibility assay, NRTI-/zidovudine-resistant primary clinical HIV-1 isolates in PBMC
Procedure: Viruses. […] The HIV-1 strains HTLVIIIB (wildtype RT, NRTI-sensitive, NNRTI-sensitive), A17 (Y181 C mutant, NNRTI-resistant), A17-variant (Y181C+K103N mutant, NNRTI-resistant), and RT-MDR (M41 L, V106N, T215Y; NRTI-resistant, NNRTI-resistant) were also obtained from the AIDS Research and Reference Reagent Program, NIAID.
Antiviral susceptibility assays. Phenotypic drug susceptibility studies of HIV-1 isolates and strains were performed by measuring the production of the p24 gag protein in peripheral blood mononuclear cells (PBMC) from seronegative healthy volunteers in the presence of increasing concentrations of the anti-HIV agent using the quantitative Coulter HIV-1 p24 antigen ezyme immunoassay (EIA) and HIV-1 p24 Antigen Kinetic Standard (Beckman Coulter), as previously described (Uckun, 1998, Antimicrobial Agents and Chemotherapy 37(4): 835-38). Informed consent was obtained from the blood donors according to DHHS guidelines using consent forms approved by the Institutional Review Board. In brief, PBMC were cultured for 72 h in RPMI 1640 medium (Gibco) supplemented with 20% (vol/vol) heat-inactivated fetal bovine serum, 5% human interleukin-2 (Zeptometrix), 2 mM L-glutamine, 25 mM HEPES, 2 g/L NaHCO3, 100 U/ml penicillin/streptomycin (Gibco), 50 μg/ml gentamicin (Gibco), and 5 μg/ml phytohemagglutinin-P (PHA-P) (Sigma) for 24-72 hours prior to exposure to HIV at a multiplicity of infection of 0.001-0.1 during a 1-h adsorbtion period at 37±1° C. in a humidified 5-7% CO2 atmosphere. Subsequently, cells were cultured in 96-well microtiter plates (100 μl/well; 2×10^6 cells/ml, triplicate wells) in the presence of the anti-HIV agents at 6-7 different concentrations ranging from 0.0001 μM to 100 μM, and 25 μL aliquots of culture supernatants were removed from the wells on day 6 after infection for p24 EIA, as previously described (Uckun, 1998, Antimicrobial Agents and Chemotherapy, 37(4):835-38). Controls included uninfected and untreated cells (background control) and infected but untreated (virus control) cells. The p24 EIA utilizes a murine monoclonal antibody to HIV core protein used to coat microwell strips to which the antigen present in the test culture supernatant samples binds. Percent inhibition of viral replication was calculated by comparing the p24 values from the test substance-treated infected cells with p24 values from untreated infected cells (i.e., virus controls). The IC50 values were determined using the Statview statistics program (SAS Institute, Inc.). In parallel, the effects of various treatments on cell viability were also examined as previously described (Uckun, 1998, Antimicrobial Agents and Chemotherapy, 42:383-388). In brief, noninfected PBMC were treated with each compound for 5 days under identical experimental conditions. A microculture tetrazolium assay (MTA) was performed to quantitate cellular proliferation (Uckun, 1998, Antimicrobial Agents and Chemotherapy, 42:383-388).
Phenotypic drug susceptibility studies of HIV-1 isolates and strains were performed by measuring the production of the p24 gag protein in peripheral blood mononuclear cells (PBMC) from seronegative healthy volunteers in the presence of increasing concentrations of the anti-HIV agent using the quantitative Coulter HIV-1 p24 antigen enzyme immunoassay (EIA) and HIV-1 p24 Antigen Kinetic Standard (Beckman Coulter), as previously described. StatView was used in the calculation of the IC50 values from each set of triplicate wells using the linearized form of an exponential equation (lnY=lnb0+b1X; where Y=% inhibition, X=drug concentration). The inhibition constants were log10 transformed to homogenize the variances within each group. […] P-values below 0.05 were deemed significant (JMP Software, SAS).

HIV-2 (Strain: CBL-20) = assay: Inhibition of HIV-2 replication in PBMNC (RT activity)
Procedure: (P-AZT) and with AZT. The incubation and analysis methods used were as described above for Example 3.
as §1

[3] = system: NRTI-resistant recombinant HIV-1 isolates; assay: RT activity assay, multi-NRTI-resistant recombinant HIV-1 clones

**Q.** With Cc1cn([C@H]2C[C@H](N=[N+]=[N-])[C@@H](CO)O2)c(=O)[nH]c1=O [AZT, 3′-azido-3′-deoxythymidine] as the molecule, how does the IC50 ([1]; Human immunodeficiency virus 1, read-out: HIV-MDR IC50 [RT]) read?
**A.** The IC50 was 2000 nM.

**Q.** What about the IC50 ([1]; Human immunodeficiency virus 1, read-out: IC50 against HIV-MDR) of the same molecule?
**A.** Its IC50 is 2000 nM.

**Q.** And the IC50 ([1]; Human immunodeficiency virus 1, read-out: RTMDR-1 IC50 [RT])?
**A.** Its IC50 is 2000 nM.

**Q.** And the “antiviral activity against RTMDR-1 (in words)” value ([1]; PBMNC)?
**A.** Its value is “not effective”.

**Q.** And the IC50 ([2]; Human immunodeficiency virus 1, PBMC, isolate 92BR019 (D67N, L214F, T215D, K219Q), PBMC)?
**A.** Its IC50 is 0.2 µM.

**Q.** What about the IC50 ([2]; Human immunodeficiency virus 1, PBMC, isolate C140 (M41L, M184V, T215Y), PBMC) of the same molecule?
**A.** The IC50 was 0.1 µM.

**Q.** What about the IC50 ([2]; Human immunodeficiency virus 1, PBMC, isolate C140, PBMC, p24) of the same molecule?
**A.** The IC50 was 0.1 µM.

**Q.** What about the IC50 ([2]; Human immunodeficiency virus 1, PBMC, isolate C467-4 (K20R, D67N, K70R, Y188L, T215F, K219Q), PBMC) of the same molecule?
**A.** The IC50 was 3.2 µM.

**Q.** What about the IC50 ([2]; Human immunodeficiency virus 1, PBMC, isolate G190-6, PBMC, p24) of the same molecule?
**A.** The IC50 was over 3.2 µM.

**Q.** And the IC50 ([2]; Human immunodeficiency virus 1, PBMC, isolate G691-2 (mutations N.D.), PBMC)?
**A.** The IC50 was 2.6 µM.

**Q.** What about the IC50 ([2]; Human immunodeficiency virus 1, PBMC, isolate G704-2, PBMC, p24) of the same molecule?
**A.** The IC50 was 1.8 µM.

**Q.** What about the IC50 ([2]; Human immunodeficiency virus 1, PBMC, isolate G780-1 (M41L, D67N, K70R, T215F, K219Q), PBMC) of the same molecule?
**A.** The IC50 was over 3.2 µM.

**Q.** And the IC50 ([2]; Human immunodeficiency virus 1, PBMC, isolate G780-1, PBMC, p24)?
**A.** The IC50 was over 3.2 µM.

**Q.** What about the IC50 ([2]; Human immunodeficiency virus 1, PBMC, isolate G890-1 (K20R, M41L, D67N, T69N, K70R, L210W, T215Y), PBMC) of the same molecule?
**A.** Its IC50 is over 3.2 µM.

**Q.** What about the IC50 ([2]; Human immunodeficiency virus 1, PBMC, isolate G890-1, PBMC, p24) of the same molecule?
**A.** Its IC50 is over 3.2 µM.

**Q.** And the IC50 ([2]; Human immunodeficiency virus 1, PBMC, isolate P798-1 (M41L, T215Y), PBMC)?
**A.** Its IC50 is 1.8 µM.

**Q.** What about the IC50 ([2]; Human immunodeficiency virus 1, PBMC, isolate Q252-2 (M41L, L210W, T215Y), PBMC) of the same molecule?
**A.** Its IC50 is 1.7 µM.

**Q.** What about the IC50 ([2]; Human immunodeficiency virus 1, PBMC, isolate R416-10 (M41L, T215Y), PBMC) of the same molecule?
**A.** Its IC50 is 0.3 µM.

**Q.** What about the IC50 ([2]; Human immunodeficiency virus 1, PBMC, isolate S159-2 (M41L, K103N, T215Y), PBMC) of the same molecule?
**A.** The IC50 was 0.7 µM.

**Q.** And the IC50 ([2]; Human immunodeficiency virus 1, PBMC, isolate S762-4 (M41L, T215Y), PBMC)?
**A.** The IC50 was 1.2 µM.

**Q.** What about the IC50 ([2]; Human immunodeficiency virus 1, PBMC, isolate T156-3 (M41L, E44D, D67N, T69D, L210W, T215Y), PBMC) of the same molecule?
**A.** Its IC50 is over 3.2 µM.

**Q.** And the IC50 ([2]; Human immunodeficiency virus 1, PBMC, isolate T156-3, PBMC, p24)?
**A.** The IC50 was over 3.2 µM.

**Q.** What about the IC50 ([2]; Human immunodeficiency virus 1, PBMC, isolate X165-8 (D67N, T69N, K70R, K103N, Y181C, T215F, K219E), PBMC) of the same molecule?
**A.** Its IC50 is 0.9 µM.

**Q.** And the IC50 ([2]; Human immunodeficiency virus 1, PBMC, isolate X165-9 (K20R, D67N, K103N, T215Y), PBMC)?
**A.** Its IC50 is 0.9 µM.

**Q.** And the IC50 ([2]; Human immunodeficiency virus 1, PBMC, isolate X267-1 (L74V), PBMC, p24)?
**A.** Its IC50 is 0.6 µM.

**Q.** And the IC50 ([2]; Human immunodeficiency virus 1, PBMC, isolate X267-1 (M41L, L74V, L210W, T215Y), PBMC)?
**A.** Its IC50 is 0.6 µM.

**Q.** And the IC50 ([2]; Human immunodeficiency virus 1, PBMC, isolate X267-2 (M41L, T215Y), PBMC)?
**A.** The IC50 was 0.4 µM.

**Q.** And the IC50 ([2]; Human immunodeficiency virus 1, PBMC, isolate X267-5 (M41L, F116S, T215Y), PBMC)?
**A.** Its IC50 is 0.6 µM.

**Q.** And the IC50 ([2]; Human immunodeficiency virus 1, PBMC, isolate Y270-7 (M41W, Y188L, T215N), PBMC)?
**A.** The IC50 was 1.5 µM.

**Q.** What about the IC50 ([2]; Human immunodeficiency virus 1, PBMC, read-out: IC50, μM, Mean ± SE, mean over 20 zidovudine-resistant primary clinical isolates) of the same molecule?
**A.** The IC50 was 1.6 ± 0.5 µM.

**Q.** What about the IC50 ([2]; Human immunodeficiency virus 1, PBMC, read-out: mean IC50 value, NRTI-resistant isolates with 5 thymidine analog mutations (Group 1 in Table 19)) of the same molecule?
**A.** Its IC50 is 2.6 µM.

**Q.** And the IC50 ([2]; Human immunodeficiency virus 1, PBMC, read-out: mean IC50 value, isolates with M184V plus multiple thymidine analog mutations (Group 2 in Table 19))?
**A.** The IC50 was 0.134 ± 0.0188 µM.

**Q.** And the IC50 ([2]; isolate G704-2 (M41L, D67N, K70R, L210W, T215Y), PBMC, listed as zidovudine)?
**A.** The IC50 was over 10 µM.

**Q.** What about the IC50 ([2]; isolate G910-6 (M41L, D67N, K70R, T215Y, K219Q), PBMC, listed as ZDV(AZT)) of the same molecule?
**A.** Its IC50 is over 3.2 µM.

**Q.** What about the IC50 ([2]; isolate G910-6 (M41L, D67N, K70R, T215Y, K219Q), PBMC, listed as zidovudine) of the same molecule?
**A.** Its IC50 is over 10 µM.

**Q.** What about the IC50 (HIV-2 (Strain: CBL-20); Human immunodeficiency virus 2, Table 3, unit inferred, read-out: HIV-2 IC50 [RT]) of the same molecule?
**A.** Its IC50 is 2400 nM.

**Q.** And the “antiviral activity against HIV-2 (in words)” value (HIV-2 (Strain: CBL-20); PBMNC)?
**A.** Its value is “not effective”.

**Q.** And the IC50 ([3]; Human immunodeficiency virus 1, read-out: IC50 (nM), RT, recombinant clone 1617-1)?
**A.** Its IC50 is 174 nM.

**Q.** What about the IC50 ([3]; Human immunodeficiency virus 1, read-out: IC50 (nM), RT, recombinant clone 4755-5) of the same molecule?
**A.** The IC50 was 15.4 nM.

**Q.** And the IC50 ([3]; Human immunodeficiency virus 1, read-out: IC50 (nM), RT, recombinant clone 7295-1)?
**A.** Its IC50 is 0.8 nM.

**Q.** And the IC50 ([3]; Human immunodeficiency virus 1, read-out: IC50 (nM), RT, recombinant clone 7324-1)?
**A.** The IC50 was 108 nM.

**Q.** And the IC50 ([3]; Human immunodeficiency virus 1, read-out: IC50 (nM), RT, recombinant clone 52534-2)?
**A.** The IC50 was 54.8 nM.

**Q.** And the IC50 ([3]; Human immunodeficiency virus 1, read-out: IC50 (nM), RT, recombinant clone 56252-1)?
**A.** Its IC50 is 187 nM.

**Q.** What about the IC50 ([3]; Human immunodeficiency virus 1, read-out: mean IC50, RT, mean over 6 multi-NRTI-resistant clones) of the same molecule?
**A.** Its IC50 is 90 ± 32.4 nM.

From patent US20070015733A1, “Aryl Phosphate Derivatives of d4T having Activity Against Resistant HIV Strains” (Parker Hughes Institute, priority 1998, published 2007)
